Assay results reported in ChEMBL document CHEMBL5113558, “Discovery of Potent PROTACs for the Potential Treatment of Leukemia” (ACS Med Chem Lett, 2022).

Target: Protein cereblon/Tyrosine-protein kinase JAK2 (Homo sapiens, UniProt O60674+Q96SW2)
Test: Protac activity at E3 ubiquitin ligase/JAK2 in human MHH-CALL-4 cells assessed as E3 ubiquitin ligase mediated JAK2 degradation incubated for 32 hrs by immunoblotting analysis
Type: cell-based, MHHCALL4

Chain of Protein cereblon/Tyrosine-protein kinase JAK2 (O60674 whole entry): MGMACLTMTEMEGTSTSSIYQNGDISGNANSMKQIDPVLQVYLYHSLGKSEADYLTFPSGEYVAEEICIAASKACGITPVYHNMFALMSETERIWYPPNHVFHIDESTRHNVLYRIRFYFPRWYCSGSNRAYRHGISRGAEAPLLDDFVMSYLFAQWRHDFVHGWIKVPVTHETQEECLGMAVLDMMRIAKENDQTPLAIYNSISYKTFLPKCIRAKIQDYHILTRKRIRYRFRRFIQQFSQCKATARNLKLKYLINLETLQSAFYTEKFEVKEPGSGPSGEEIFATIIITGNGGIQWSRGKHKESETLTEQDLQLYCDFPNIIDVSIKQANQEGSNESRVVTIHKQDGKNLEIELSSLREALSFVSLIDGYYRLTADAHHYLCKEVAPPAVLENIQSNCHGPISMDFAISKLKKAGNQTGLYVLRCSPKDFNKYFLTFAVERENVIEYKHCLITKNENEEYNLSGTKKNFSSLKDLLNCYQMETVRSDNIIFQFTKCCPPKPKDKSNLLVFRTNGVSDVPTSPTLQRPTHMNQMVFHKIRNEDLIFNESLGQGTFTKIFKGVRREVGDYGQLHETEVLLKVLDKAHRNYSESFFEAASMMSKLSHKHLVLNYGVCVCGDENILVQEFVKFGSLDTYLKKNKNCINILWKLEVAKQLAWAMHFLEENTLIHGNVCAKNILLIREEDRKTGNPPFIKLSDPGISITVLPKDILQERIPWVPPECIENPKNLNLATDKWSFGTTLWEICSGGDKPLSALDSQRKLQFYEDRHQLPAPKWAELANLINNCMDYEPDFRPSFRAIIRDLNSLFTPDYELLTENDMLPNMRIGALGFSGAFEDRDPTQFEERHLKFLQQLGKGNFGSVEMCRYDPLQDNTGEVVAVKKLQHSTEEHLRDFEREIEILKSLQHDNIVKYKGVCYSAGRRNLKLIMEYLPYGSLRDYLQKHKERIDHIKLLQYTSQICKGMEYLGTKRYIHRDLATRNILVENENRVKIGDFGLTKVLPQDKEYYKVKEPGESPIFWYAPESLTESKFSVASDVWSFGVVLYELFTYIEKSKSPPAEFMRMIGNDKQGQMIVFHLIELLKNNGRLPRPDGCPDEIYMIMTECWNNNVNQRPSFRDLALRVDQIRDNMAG
Chain of Protein cereblon/Tyrosine-protein kinase JAK2 (Q96SW2 whole entry): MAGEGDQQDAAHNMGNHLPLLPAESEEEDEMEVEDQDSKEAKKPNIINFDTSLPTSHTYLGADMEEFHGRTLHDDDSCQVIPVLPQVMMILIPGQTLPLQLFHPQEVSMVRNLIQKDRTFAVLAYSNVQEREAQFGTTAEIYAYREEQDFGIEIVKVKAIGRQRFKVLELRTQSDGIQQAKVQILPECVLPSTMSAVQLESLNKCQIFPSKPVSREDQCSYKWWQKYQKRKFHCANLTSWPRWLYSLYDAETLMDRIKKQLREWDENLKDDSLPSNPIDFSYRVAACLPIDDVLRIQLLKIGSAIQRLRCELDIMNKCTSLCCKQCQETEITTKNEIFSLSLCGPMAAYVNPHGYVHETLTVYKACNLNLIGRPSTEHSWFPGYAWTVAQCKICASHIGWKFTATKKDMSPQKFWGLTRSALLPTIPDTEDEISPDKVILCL

EC50: 0.5 nM
SMILES: CCCn1cc(-c2nc(Nc3ccc(C(=O)NCCCCCc4cccc5c4CN(C4CCC(=O)NC4=O)C5=O)cc3)nc3[nH]ccc23)cn1 (stereo unspecified)
